# Measurements taken from patent US20090246134A1, “COMPOSITIONS AND METHODS FOR MODULATING GATED ION CHANNELS” (PainCeptor Pharma Corporation, priority 2007, published 2009).
# Values joined by “and” are separate entries in the source; they are usually repeats but may differ in a detail not shown here. Equal values may be shown once.
# Columns and labels:
# ASIC1a = molecular target: T1, ASIC1a (Homo sapiens, UniProt P78348); assay: Calcium-imaging (calcium mobilization, FLIPR) assay in ASIC1a expressing HEK293 cells; assay type: cell-based; design: host or cells: HEK293; conditions: n=3-7, compounds not radiolabelled
# T1 sequence (P78348 1-528): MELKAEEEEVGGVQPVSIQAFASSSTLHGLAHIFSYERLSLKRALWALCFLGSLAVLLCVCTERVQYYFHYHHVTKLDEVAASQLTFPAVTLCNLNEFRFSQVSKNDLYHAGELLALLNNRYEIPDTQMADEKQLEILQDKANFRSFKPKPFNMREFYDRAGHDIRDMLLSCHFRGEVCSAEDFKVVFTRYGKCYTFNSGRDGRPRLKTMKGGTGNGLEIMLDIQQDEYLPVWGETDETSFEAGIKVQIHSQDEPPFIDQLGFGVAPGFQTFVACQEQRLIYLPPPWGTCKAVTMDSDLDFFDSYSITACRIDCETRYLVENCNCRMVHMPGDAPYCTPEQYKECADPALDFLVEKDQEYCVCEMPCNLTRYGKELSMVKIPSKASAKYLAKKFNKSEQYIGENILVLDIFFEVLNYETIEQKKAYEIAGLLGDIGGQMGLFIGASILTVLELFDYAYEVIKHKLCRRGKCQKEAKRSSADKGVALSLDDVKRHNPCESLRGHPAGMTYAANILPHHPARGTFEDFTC
# Experimental: ASIC1a expressing HEK293 cells are grown in culture medium (DMEM with 10% FBS), in polystyrene culture flasks ([…]) at 37° C. in a humidified atmosphere of 5% CO2. Confluency of cells should be 80-90% on day of plating. Cells are rinsed with 10 ml of PBS and re-suspended by addition of culture medium and trituration with a 25 ml pipette.
# The cells are seeded at a density of approximately 1×10^6 cells/ml (100 μl/well) in black-walled, clear bottom, 96-well plates pre-treated with 10 mg/l poly-D-lysin (75 μl/well for ≧30 min). Plated cells were allowed to proliferate for 24 h before loading with dye.
# Fluo-4/AM (1 mg, Molecular Probes) is dissolved in 912 μl DMSO. The Fluo-4/AM stock solution (1 mM) is diluted with culture medium to a final concentration of 2 μM (loading solution).
# The culture medium is aspirated from the wells, and 50 μl of the Fluo-4/AM loading solution is added to each well. The cells are incubated at 37° C. for 30 min.
# After the loading period, the loading solution is aspirated and the cells are washed twice with 100 μl modified Assay Buffer (145 mM NaCl, 5 mM KCl, 5 mM CaCl2, 1 mM MgCl2, 10 mM HEPES, pH 7.4) to remove extracellular dye. Following the second wash, 100 μl modified Assay Buffer is added to each well and the fluorescence is measured in FLIPR™ or FlexStation™ (Molecular Devices, USA), or any other suitable equipment known to the skilled in the art.
# Temperature: Room temperature (20-22° C.)
# First addition: 50 μl test solution at a rate of 30 μl/sec and a starting height of […]
# Second addition: 50 μl MES solution (20 mM, 5 mM final concentration) at a rate of 35 μl/sec and a starting height of 150 μl.
# Reading intervals: pre-incubation—10 sec×7 and 3 sec×3 antagonist phase—3 sec×17 and 10 sec×12
# Addition plates (compound test plate and MES plate) are placed on the right and left positions in the FLIPR tray, respectively. Cell plates are placed in the middle position and the ASIC1a program is effectuated. FLIPR will then take the appropriate measurements in accordance with the interval settings above. Fluorescence obtained after stimulation is corrected for the mean basal fluorescence (in modified Assay Buffer).
# The MES-induced peak calcium response, in the presence of test substance, is expressed relatively to the MES response alone. Test substances that block the MES-induced calcium response are re-tested in triplicates. Confirmed hits are picked for further characterization by performing full dose-response curves to determine potency of each hit compound as represented by the IC50 values (i.e., the concentration of the test substance which inhibits 50% of the MES-induced calcium response).
# It is noted that the compounds below are not radiolabelled.
# [1] = system: formalin-induced pain in Sprague-Dawley rats; assay: Formalin model of acute tonic pain; assay type: in vivo, rat; conditions: rat, in vivo
# Experimental: Male Sprague-Dawley rats are housed together in groups of three animals under standard conditions with unrestricted access to food and water. All experiments are conducted according to the ethical guidelines for investigations of experimental pain in conscious animals (Zimmerman, 1983)
# Assessment of formalin-induced flinching behavior in normal, uninjured rats (body weight 150-180 g) was made with the use of an Automated Nociception Analyser (University of California, San Diego, USA). Briefly, this involved placing a small C-shaped metal band (10 mm wide×27 mm long) on the hindpaw of the rat to be tested. The rats (four rats were included in each testing session) were then placed in a cylindrical plexiglass observation chamber (diameter 30.5 cm and height 15 cm) for 20 min for adaptation purposes prior to being administered drug or vehicle according to the experimental paradigm being followed. After adaptation, individual rats were then gently restrained and formalin (5% in saline, 50 μl, s.c.) was injected into the plantar surface of the hindpaw using a 27 G needle. Rats were then returned to their separate observation chambers, each of which were in turn situated upon an enclosed detection device consisting of two electromagnetic coils designed to produce an electromagnetic field in which movement of the metal band could be detected. The analogue signal was then digitised and a software algorithm (LabView) applied to enable discrimination of flinching behaviour from other paw movements. A sampling interval of 1 min was used and on the basis of the resulting response patterns 5 phases of nociceptive behaviour were identified and scored: first phase (P1; 0-5 min), interphase (Int; 6-15 min), second phase (P2; […]), phase 2A (P2A; 16-40 min) and phase 2B (P2B; 41-60 min).
# Nociceptive behavior was also determined manually every 5 min by measuring the amount of time spent in each of four behavioral categories: 0, treatment of the injected hindpaw is indistinguishable from that of the contralateral paw; 1, the injected paw has little or no weight placed on it; 2, the injected paw is elevated and is not in contact with any surface; 3, the injected paw is licked, bitten, or shaken. A weighted nociceptive score, ranging from 0 to 3 was calculated by multiplying the time spent in each category by the category weight, summing these products, and dividing by the total time for each 5 min block of time. (Coderre et al., Pain 1993; 54: 43). On the basis of the resulting response patterns, 2 phases of nociceptive behavior were identified and scored: first phase (P1; 0-5 min), interphase (Int; 6-15 min), second phase (P2; […]), phase 2A (P2A; 16-40 min) and phase 2B (P2B; 41-60 min).
# Statistical analysis was performed using Prism™ 4.01 software package (GraphPad, San Diego, Calif., USA). The difference in response levels between treatment groups and control vehicle group was analyzed using an ANOVA followed by Bonferroni's method for post-hoc pair-wise comparisons. A p value<0.05 was considered to be significant
# The effect of Compound A on pain induced by intraplantar formalin injection was investigated. Compound A was administered i.p. 30 min. before the formalin. Compound A was able to reduce the total pain score behavior (flinching, licking, biting) in phase 1 and 2 of the formalin test.
# [2] = Plasma composition analysis, parent compound and metabolites by MS; assay type: in vivo; conditions: rat plasma
# Experimental: Rats receive compounds (5 mg/kg) dissolved in HPβCD 15%, dextrose 2.5%, pH 5 by intravenous (i.v). route or (25-30 mg/kg) dissolved in HPβCD 15%, dextrose 2.5%, […] (s.c.) route or (50-150 mg/kg) dissolved in HPβCD 15%, dextrose 2.5%, pH 5 by oral (p.o.) route. After the treatment, approximately 100 μl of blood sample is collected and the accurate bleeding time is recorded for each sample. Each blood sample is collected into Microvette blood collection tube containing anticoagulant lithium heparin. Following collection, the samples are centrifuged at […] for 15 minutes (to avoid haemolysis) and the plasma obtained from each is recovered and stored frozen (at −80° C.) pending analysis. Frozen samples are shipped on dry ice to quantify drug concentration within plasma after extraction procedure as previously described in Example 13.
# [3] = Liver microsomes stability and metabolite identification (LC-MS), rat; assay type: in vitro ADME
# Text: (§1) The objective of this study is to analyze in vitro samples of Compound A and Compound B from rat and human microsomes using liquid chromatography quadrupole ion trap mass spectrometry and identify the nature of the metabolite(s) for each species.
# (§2) The HPLC system consisted of a Thermo Surveror autosampler and a Thermo Surveyor MS pump (San Jose, Calif., USA). The LC-MS/MS system used was a Thermo LCQ Advantage (San Jose, Calif., USA). Data was acquired on a Dell Optiplex desktop computer (Round Rock, Tex., USA) equipped with operation system Windows XP professional. Data acquisition and analysis were performed using XCalibur 1.4 (San Jose, Calif., USA).
# (§3) After the incubation period of the liver microsomes, the reaction was stopped with the addition of acetonitrile and frozen for transport. Before analysis, the samples were thawed at room temperature. They were vortexed vigorously and centrifuged at approximately 12000 g for 10 minutes. The supernatant was transferred into an injection vial for analysis.
# (§4) A gradient mobile phase was used with a Thermo Phenyl 100×2 mm column with particle size of 5 μm. The initial mobile phase condition consisted of methanol and 0.1% formic acid solution at a ratio of 20:80, respectively. From 0 to 2 minutes, the ratio was maintained at 20:80. From 2 to 10 minutes, a linear gradient was applied and a ratio of 90:10 was maintained from 10 to 12 minutes. […] The flow rate was fixed at 0.25 mL/min.
# (§5) The mass spectrometer was interfaced with the HPLC system using a pneumatic assisted electrospray ion source. The sheath gas was set to 15 units and the ESI electrode was set to 4000 V (positive mode). The capillary temperature was set at 300° C., and the capillary voltage was set to 13 V. The mass spectrometer was operating in full scan MS mode using one segment analysis (200-800).
# [4] = Liver microsomes stability and metabolite identification (LC-MS), human; assay type: in vitro ADME
# Text: as §1, §2, §3, §4, §5
# [5] = Liver microsomes stability and metabolite identification (LC-MS), dog; assay type: in vitro ADME
# [6] = rat microsomes 60 min (samples 8-10)
# [7] = human microsomes 60 min (samples 17-19)
# [8] = dog microsomes 60 min (samples 26-28)
smiles,measurement,setting,value
"COc1ccc(F)cc1-c1cc2c(c3c1CCN(C)C3)NC(=O)/C2=N/O [Compound A (minor Z isomer isolated), 5-(5-fluoro-2-methoxyphenyl)-6,7,8,9-tetrahydro-3-(hydroxyimino)-8-methyl-1H-pyrrolo[3,2-h]isoquinoline-2(3H)-one]",IC50,ASIC1a,1000 nM
"CCN1CCc2c(-c3cc(F)ccc3OC)cc3c(c2C1)NC(=O)/C3=N/O [Compound B, 5-(5-fluoro-2-methoxyphenyl)-6,7,8,9-tetrahydro-3-(hydroxyimino)-8-ethyl-1H-pyrrolo[3,2-h]isoquinoline-2(3H)-one]",acute tonic pain induced by formalin injection in the paw,[1],block
same,Plasma Component: N-desMe or desEt,[2]; IV 5 mg/kg,Trace
same,Plasma Component: O-desMe,[2]; IV 5 mg/kg,Trace
same,Plasma Component: P—OH,[2]; IV 5 mg/kg,Trace
same,Plasma Component: N-desMe or desEt,[2]; PO 50 mg/kg,Trace
same,Plasma Component: O-desMe,[2]; PO 50 mg/kg,Trace
same,Plasma Component: P—OH,[2]; PO 50 mg/kg,Trace
same,Plasma Component: N-desMe or desEt,[2]; SC 25 mg/kg,Trace
same,Plasma Component: O-desMe,[2]; SC 25 mg/kg,Trace
same,Plasma Component: P—OH,[2]; SC 25 mg/kg,Trace
same,Total % metabolites,"[3]; % peak area relative to parent at T0, 60 min incubation, rat microsomes",12.8%
same,Compound B metabolite identification: m/z 342,[3]; [6],Yes
same,Compound B metabolite identification: m/z 356,[3]; [6],Yes
same,Compound B metabolite identification: m/z 370 (parent),[3]; [6],Yes
same,Compound B metabolite identification: m/z 386,[3]; [6],Yes
same,Calc. Conc.,"[3]; rat microsomes, time 0 min",4.95 µM
same,Calc. Conc.,"[3]; rat microsomes, time 60 min",0.90 µM and 0.92 µM and 0.97 µM
same,Total % metabolites,"[4]; % peak area relative to parent at T0, 60 min incubation, human microsomes",9.4%
same,Compound B metabolite identification: m/z 342,[4]; [7],Yes
same,Compound B metabolite identification: m/z 356,[4]; [7],low
same,Compound B metabolite identification: m/z 370 (parent),[4]; [7],Yes
same,Compound B metabolite identification: m/z 386,[4]; [7],Yes
same,Calc. Conc.,"[4]; human microsomes, time 0 min",4.39 µM and 5.04 µM
same,Calc. Conc.,"[4]; human microsomes, time 60 min",4.34 µM and 4.59 µM and 5.03 µM
same,Total % metabolites,"[5]; % peak area relative to parent at T0, 60 min incubation, dog microsomes",4.93%
same,Compound B metabolite identification: m/z 342,[5]; [8],very weak
same,Compound B metabolite identification: m/z 356,[5]; [8],very weak
same,Compound B metabolite identification: m/z 370 (parent),[5]; [8],Yes
same,Compound B metabolite identification: m/z 386,[5]; [8],low
same,Calc. Conc.,"[5]; dog microsomes, time 0 min",4.44 µM and 4.56 µM
same,Calc. Conc.,"[5]; dog microsomes, time 60 min",4.33 µM and 4.38 µM and 4.17 µM
"CN1CCc2c(-c3cc(F)ccc3O)cc3c(c2C1)NC(=O)C3=NO [Compound L, 5-(5-Fluoro-2-hydroxyphenyl)-3-(hydroxyimino)-8-methyl-6,7,8,9-tetrahydro-1H-pyrrolo[3,2-h]isoquinolin-2(3H)-one]",IC50,ASIC1a,800 nM
